From patent US20120295845A1, “IMIDAZO-PYRAZOLES AS GPR119 INHIBITORS” (Pfizer Inc, priority 2009, published 2012)
Values joined by “and” are separate entries in the source; they are usually repeats but may differ in a detail not shown here. Identical values can stand only once.

What follows are compounds tested against T1, human GPR119 (Homo sapiens, UniProt Q8TDV5) (assay: GPR119 radioligand binding assay ([3H]-Compound A or [3H]-Compound B, membranes of HEK 293FT cells expressing hGPR119)). Conditions: Ki calculated from IC50 by the Cheng-Prusoff equation; one value per run.
T1 construct: host or cells: HEK293-CRE beta-lactamase cells
T1 sequence (Q8TDV5 1-335): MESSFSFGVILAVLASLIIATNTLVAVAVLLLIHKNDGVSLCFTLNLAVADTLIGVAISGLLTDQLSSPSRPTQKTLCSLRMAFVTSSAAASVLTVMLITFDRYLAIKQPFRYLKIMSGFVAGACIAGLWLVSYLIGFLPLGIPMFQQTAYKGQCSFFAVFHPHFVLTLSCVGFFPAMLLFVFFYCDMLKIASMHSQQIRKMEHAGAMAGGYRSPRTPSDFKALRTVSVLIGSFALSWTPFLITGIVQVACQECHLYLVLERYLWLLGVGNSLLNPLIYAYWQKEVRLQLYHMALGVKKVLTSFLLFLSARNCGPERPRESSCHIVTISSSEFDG
Method: HEK 293FT cells (Invitrogen, Carlsbad, Calif.) were grown in a shake flask in 293Freestyle medium (Invitrogen) supplemented with 50 microg/mL neomycin and 10 mM HEPES (37C, 8% carbon dioxide, shaking). The cells were centrifuged gently (approximately 500×g, 10 minutes) and the pellet resuspended in a mixture of Dulbecco's PBS (minus Mg++/Ca++) supplemented with 18% fetal bovine serum (Sigma Aldrich) and P1 virus such that the multiplicity of infection (MOI) was 10 and the final cell density was 1.3×10^6/mL (total volume 2.5 liters). The cells were transferred to a 5 liter Wave Bioreactor Wavebag (Wave Technologies, Mass.) and incubated for 4 hours at 27 degrees Celsius (17 rocks/min, 7 degrees platform angle); at the end of the incubation period, an equal volume (2.5 liters) of 293Freestyle medium supplemented with 30 mM sodium butyrate (Sigma Aldrich) was added (final concentration=15 mM), and the cells were grown for 20 hours (37 degrees Celsius, 8% CO2 [0.2 liters/min}, 25 rocks/minute, 7 degrees platform angle). Cells were harvested via centrifugation (3,000×g, 10 minutes), washed once on DPBS (minus Ca++/Mg++), resuspended in 0.25M sucrose, 25 mM HEPES, 0.5 mM EDTA, pH 7.4 and frozen at −80 degrees Celsius.
The frozen cells were thawed on ice and centrifuged at 700×g (1400 rpm) for 10 minutes at 4 degrees Celsius. The cell pellet was resuspended in 20 mL phosphate-buffered saline, and centrifuged at 1400 rpm for 10 minutes. The cell pellet was then resuspended in homogenization buffer (10 mM HEPES (Gibco #15630), pH 7.5, 1 mM EDTA (BioSolutions, #BIO260-15), 1 mM EGTA (Sigma, #E-4378), 0.01 mg/mL benzamidine (Sigma #B 6506), 0.01 mg/mL bacitracin (Sigma #B 0125), 0.005 mg/mL leupeptin (Sigma #L 8511), 0.005 mg/mL aprotinin (Sigma #A 1153)) and incubated on ice for 10 minutes. Cells were then lysed with 15 gentle strokes of a tight-fitting glass Dounce homogenizer. The homogenate was centrifuged at 1000×g (2200 rpm) for 10 minutes at 4 degrees Celsius. The supernatant was transferred into fresh centrifuge tubes on ice. The cell pellet was resuspended in homogenization buffer, and centrifuged again at 1000×g (2200 rpm) for 10 minutes at 4 degrees Celsius after which the supernatant was removed and the pellet resuspended in homogenization buffer. This process was repeated a third time, after which the supernatants were combined, Benzonase (Novagen # 71206) and MgC12 (Fluka #63020) were added to final concentrations of 1 U/mL and 6 mM, respectively, and incubated on ice for one hour. The solution was then centrifuged at 25,000×g (15000 rpm) for 20 minutes at 4 degrees Celsius, the supernatant was discarded, and the pellet was resuspended in fresh homogenization buffer (minus Benzonase and MgCl2). After repeating the 25,000×g centrifugation step, the final membrane pellet was resuspended in homogenization buffer and frozen at −80 degrees Celsius. The protein concentration was determined using the Pierce BCA protein assay kit (Pierce reagents A #23223 and B #23224).
Test compounds were serially diluted in 100% DMSO (J. T. Baker #922401). 2 microL of each dilution was added to appropriate wells of a 96-well plate (each concentration in triplicate). Unlabeled Compound A (or Compound B), at a final concentration of 10 microM, was used to determine non-specific binding. [^3H]-Compound A (or [^3H]-Compound B) was diluted in binding buffer (50 mM Tris-HCl, pH 7.5, (Sigma #T7443), 10 mM MgCl2 (Fluka 63020), 1 mM EDTA (BioSolutions #BIO260-15), 0.15% bovine serum albumin (Sigma #A7511), 0.01 mg/mL benzamidine (Sigma #B 6506), 0.01 mg/mL bacitracin (Sigma #B 0125), 0.005 mg/mL leupeptin (Sigma #L 8511), 0.005 mg/mL aprotinin (Sigma #A 1153)) to a concentration of 60 nM, and 100 microL added to all wells of 96-well plate (Nalge Nunc # 267245). Membranes expressing GPR119 were thawed and diluted to a final concentration of 20 μg/100 microL per well in Binding Buffer, and 100 microL of diluted membranes were added to each well of 96-well plate. […]
In the case of `Cc1c(OC2CCN(C(=O)OC3(C)CC3)CC2)ncnc1N1CCn2nccc21` [Example 2, 1-Methylcyclopropyl 4-{[6-(2,3-dihydro-1H-imidazo[1,2-b]pyrazol-1-yl)-5-methylpyrimidin-4-yl]oxy}piperidine-1-carboxylate], the Ki is reported as 305 nM. For `Cc1c(OC2CCN(C(=O)OC(C)C)CC2)ncnc1N1CCn2nccc21` [Example 1, Isopropyl 4-{[6-(2,3-dihydro-1H-imidazo[1,2-b]pyrazol-1-yl)-5-methylpyrimidin-4-yl]oxy}piperidine-1-carboxylate], the Ki was 514 nM and 442 nM and 446 nM and 524 nM. For `Cc1c(O[C@H]2CCN(C(=O)OC3(C)CC3)C[C@H]2F)ncnc1N1CCn2nccc21` (single isomer, unassigned) [Example 6], the Ki was 69 nM and 295 nM and 186 nM and 133 nM and 101 nM and 67 nM and 80 nM. `Cc1c(O[C@H]2CCN(C(=O)OC(C)C)C[C@H]2F)ncnc1N1CCn2nccc21` (racemic) [Example 4, Isopropyl (3R,4S)-4-{[6-(2,3-dihydro-1H-imidazo[1,2-b]pyrazol-1-yl)-5-methylpyrimidin-4-yl]oxy}-3-fluoropiperidine-1-carboxylate (racemic)] showed a Ki of 140 nM. In the case of `Cc1c(O[C@H]2CCN(C(=O)OC3(C)CC3)C[C@H]2F)ncnc1N1CCn2nccc21` (racemic) [Example 3, 1-Methylcyclopropyl (3R,4S)-4-{[6-(2,3-dihydro-1H-imidazo[1,2-b]pyrazol-1-yl)-5-methylpyrimidin-4-yl]oxy}-3-fluoropiperidine-1-carboxylate (racemic)], the Ki is reported as 74 nM and 83 nM and 85 nM and 97 nM and 71 nM and 34 nM and 50 nM. For `Cc1c(O[C@@H]2CCN(C(=O)OC3(C)CC3)C[C@@H]2F)ncnc1N1CCn2nccc21` (single isomer, unassigned) [Example 5], the Ki was 57 nM and 38 nM and 50 nM and 64 nM and 44 nM and 13 nM and 42 nM and 104 nM and 46 nM.
